Molecular target: T1, SIRT1 (Homo sapiens, UniProt Q96EB6)
T1 sequence (Q96EB6 1-747): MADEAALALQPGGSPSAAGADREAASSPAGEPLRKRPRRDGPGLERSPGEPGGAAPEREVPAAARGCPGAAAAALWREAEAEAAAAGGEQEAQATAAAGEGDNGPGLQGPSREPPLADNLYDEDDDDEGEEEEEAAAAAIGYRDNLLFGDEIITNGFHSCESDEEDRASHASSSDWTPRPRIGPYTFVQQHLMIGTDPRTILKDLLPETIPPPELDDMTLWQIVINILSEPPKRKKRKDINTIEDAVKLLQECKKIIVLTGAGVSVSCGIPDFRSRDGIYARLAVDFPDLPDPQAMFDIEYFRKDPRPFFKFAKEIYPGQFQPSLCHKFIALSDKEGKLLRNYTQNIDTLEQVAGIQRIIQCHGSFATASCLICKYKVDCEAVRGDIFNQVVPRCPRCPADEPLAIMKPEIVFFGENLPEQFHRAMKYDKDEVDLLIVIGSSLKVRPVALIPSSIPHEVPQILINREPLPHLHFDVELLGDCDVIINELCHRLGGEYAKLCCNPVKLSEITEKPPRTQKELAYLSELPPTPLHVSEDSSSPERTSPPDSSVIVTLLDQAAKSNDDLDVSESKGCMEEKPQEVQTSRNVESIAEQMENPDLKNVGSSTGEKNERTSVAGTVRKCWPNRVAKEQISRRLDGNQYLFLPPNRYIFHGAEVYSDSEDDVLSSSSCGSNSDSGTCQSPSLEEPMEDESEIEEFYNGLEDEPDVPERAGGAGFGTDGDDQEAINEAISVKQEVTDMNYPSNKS
Test: Mass spectrometry based assay to identify modulators of SIRT1 activity (deacetylation of p53-based acetylated peptide substrate)
Format: biochemical
Details: 10 nM SIRT1, 0.5 μM peptide substrate, 120 μM βNAD+, 25 minutes at 25° C.; for EC1.5: SIRT1 activation
Procedure, shortened: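 Activation measured on His-tagged SIRT1 (10 nM, E. coli-expressed) deacetylating a 0.5 μM p53-derived acetyl-peptide with 120 μM βNAD^+ for 25 min at 25 °C, pH 8 Tris-acetate. After formic acid stop, mass spectrometry quantified acetylated versus deacetylated peptide, referenced to DMSO and nicotinamide controls. Reported as EC1.5 and maximum fold activation.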

Row | FOLD ACT. (percent maximum fold activation) | EC1.5 | SMILES
1 | A (Fold activation≧300%) | A′ (EC1.5<250 nM) | O=C(Nc1ccccc1-c1nc2cccnc2s1)c1cc(OCCN2CCNCC2)cc(-c2ccccc2)n1 [Compound 14]
2 | A (Fold activation≧300%) | A′ (EC1.5<250 nM) | C[C@@H]1CN(c2cc(C(=O)Nc3ccccc3-c3nc4cccnc4s3)nc(-c3ccccc3)n2)C[C@H](C)N1 [Compound 35]
3 | C (Fold Activation<150%) | C (EC1.5>10 uM) | CC(C)CNc1cc(C(=O)Nc2ccccc2-c2nc3cccnc3s2)nc(-c2ccccc2)n1 [Compound 19]
4 | A (Fold activation≧300%) | A′ (EC1.5<250 nM) | Cc1cccc(-c2nc(C(=O)Nc3ccccc3-c3nc4cccnc4s3)cc(N3CCNCC3)n2)c1 [Compound 139]
5 | B (Fold Activation≧150% and <300%) | A (EC1.5≧250 nM and ≦1 uM) | O=C(Nc1ccccc1-c1nc2cccnc2s1)c1cc(N2CCS(=O)(=O)CC2)nc(-c2ccccc2)n1 [Compound 16]
6 | A (Fold activation≧300%) | A (EC1.5≧250 nM and ≦1 uM) | CN(C)CCCNc1cc(C(=O)Nc2ccccc2-c2nc3cccnc3s2)nc(-c2ccccc2)n1 [Compound 88]
7 | A (Fold activation≧300%) | A′ (EC1.5<250 nM) | O=C(Nc1ccccc1-c1nc2cccnc2s1)c1cc(NCCCO)nc(-c2ccccc2)n1 [Compound 40]
8 | A (Fold activation≧300%) | A′ (EC1.5<250 nM) | O=C(Nc1ccccc1-c1nc2cccnc2s1)c1cc(N2CCNCC2)cc(-c2ccccc2)n1 [Compound 119]
9 | B (Fold Activation≧150% and <300%) | A′ (EC1.5<250 nM) | O=C(Nc1ccccc1-c1nc2cccnc2s1)c1cc(OC[C@@H](O)CO)nc(-c2ccccc2)n1 [Compound 108]
10 | A (Fold activation≧300%) | A′ (EC1.5<250 nM) | O=C(Nc1ccccc1-c1nc2cccnc2s1)c1cc(NCCN2CCNCC2)nc(-c2ccccc2)n1 [Compound 48]
11 | B (Fold Activation≧150% and <300%) | A (EC1.5≧250 nM and ≦1 uM) | O=C(Nc1ccccc1-c1nc2cccnc2s1)c1cc(NC2CCN(Cc3ccccc3)CC2)nc(-c2ccccc2)n1 [Compound 113]
12 | A (Fold activation≧300%) | A′ (EC1.5<250 nM) | CC(C)(C)N1CCC(Nc2cc(C(=O)Nc3ccccc3-c3nc4cccnc4s3)nc(-c3ccccc3)n2)CC1 [Compound 125]
13 | A (Fold activation≧300%) | A′ (EC1.5<250 nM) | Cc1cccc(-c2nc(NC(CO)CO)cc(C(=O)Nc3ccccc3-c3nc4cccnc4s3)n2)c1 [Compound 134]
14 | A (Fold activation≧300%) | A (EC1.5≧250 nM and ≦1 uM) | O=C(O)CCNc1cc(C(=O)Nc2ccccc2-c2nc3cccnc3s2)nc(-c2ccccc2)n1 [Compound 44]
15 | A (Fold activation≧300%) | A′ (EC1.5<250 nM) | CN(C)CCN(C)c1cc(C(=O)Nc2ccccc2-c2nc3cccnc3s2)nc(-c2ccccc2)n1 [Compound 145]
16 | A (Fold activation≧300%) | A′ (EC1.5<250 nM) | COCCN(CCOC)c1cc(C(=O)Nc2ccccc2-c2nc3cccnc3s2)nc(-c2cccc(C)c2)n1 [Compound 143]
17 | A (Fold activation≧300%) | A (EC1.5≧250 nM and ≦1 uM) | O=C(Nc1ccccc1-c1nc2cccnc2s1)c1cc(NCc2cccnc2)nc(-c2ccccc2)n1 [Compound 58]
18 | A (Fold activation≧300%) | A′ (EC1.5<250 nM) | Cc1cccc(-c2nc(C(=O)Nc3ccccc3-c3nc4cccnc4s3)cc(N3CCN(C(C)C)CC3)n2)c1 [Compound 138]
19 | B (Fold Activation≧150% and <300%) | A (EC1.5≧250 nM and ≦1 uM) | O=C(Nc1ccccc1-c1nc2cccnc2s1)c1cc(OC[C@H](O)CO)nc(-c2ccccc2)n1 [Compound 107]
20 | C (Fold Activation<150%) | C (EC1.5>10 uM) | O=C(Nc1ccccc1-c1nc2cccnc2s1)c1cc(NCc2ccccc2)nc(-c2ccccc2)n1 [Compound 54]

Source: US20110009381A1, “SOLUBILIZED THIAZOLOPYRIDINES” (Sirtis Pharmaceuticals, Inc., priority 2007, published 2011)
